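Interpolation was linear, between the two tested concentrations surrounding the appropriate level; five concentrations were tested over 48 hours in 96-well plates. Abbreviation: GI50, concentration required for 50% inhibition of growth. TGI: total growth inhibition.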 Where a SMILES comes first, the peptide text is derived from it. The star is where a group is joined. Boc = CC(C)(C)OC(=O)*; OBn = c1ccc(CO*)cc1
Columns and labels:
Experiment in all cases: NCI tumour cell line growth inhibition, 48 h
SNB-19 CNS = test system: SNB-19 CNS
HCT-116 colon = test system: HCT-116 colon
OVCAR-4 ovarian = test system: OVCAR-4 ovarian
SK-MEL-28 melanoma = test system: SK-MEL-28 melanoma

SMILES	TGI (SNB-19 CNS) [µM]	TGI (HCT-116 colon) [µM]	TGI (OVCAR-4 ovarian) [µM]	TGI (SK-MEL-28 melanoma) [µM]	GI50 (HCT-116 colon) [µM]
O=C1CC(C(=O)N2CCCCC2)n2c(=O)n(-c3ccccc3)c(=O)n2C1 (stereo not drawn)	> 100	> 100	–	–	–
COc1ccc(C2(O)c3ccccc3C(=O)N(C)C2(O)c2ccc(OC)cc2)cc1 (stereo not drawn)	> 100	> 100	> 100	> 100	–
CC(=O)N(CN1C(=O)CCC1C(=O)O)c1cccc(O)c1 (stereo not drawn)	> 100	> 100	> 100	> 100	–
CC(C)(C)OC(=O)N(CCNS(=O)(=O)c1cccc2cnccc12)CCC(=O)ON1C(=O)CCC1=O	> 100	> 100	> 100	> 100	–
COc1ccc(C(=O)/C=C/c2cccnc2)cc1OC	27.6	16.3	25.7	33.1	–
O=C1C(=Nc2ccccc2)Oc2cc(O)ccc21	> 100	> 100	> 100	> 100	–
CN(C)CCn1c(=O)c2ccc3c4c(nn3CCN(C)C)c3cc(O)ccc3n(c1=O)c24	1	1.08	0.392	1.58	–
Cn1c(=O)c2c(ncn2CCCCOc2ccc3c(c2)[n+]([O-])nc(N)[n+]3[O-])n(C)c1=O	> 100	> 100	> 100	> 100	–
O=C1Nc2ccccc2/C1=C/c1c(Cl)[nH]c2ccc(O)cc12	> 58.8	19.4	38.5	22.5	–
Cc1ccc(-c2c(C#N)c(N)nc3c2CCS(=O)(=O)c2ccccc2-3)cc1	> 100	> 100	> 100	> 100	–
NC(CCC(=O)O)(CCC(=O)O)CCC(=O)O	> 100	> 100	–	–	–
CCN(CC)C(=S)N=Nc1c(O)[nH]c2ccccc12	16	2.84	11.9	> 100	–
CC(NC(=O)C(Cc1ccccc1)NC(=O)C(Cc1ccccc1)NC(=O)OC(C)(C)C)C(=O)OCc1ccccc1 (stereo not drawn) (Boc-Phe-Phe-Ala-OBn; configuration not given here)	–	> 100	–	–	–
CCOc1ncn(-c2ccc(NC(=S)NC34CC5CC(CC(C5)C3)C4)cc2)n1	> 100	> 100	> 100	> 100	–
N#Cc1[nH]c(=O)n(-c2cccc3ccccc23)c1N	> 10	> 10	> 10	> 10	–
CC12c3c4cc(Br)cc3Oc3cc(Br)cc(c31)Oc1cc(Br)cc(c12)O4	> 100	> 100	> 100	> 100	–
O=C1C(=C(I)I)c2ccccc2-c2ccccc21	27.5	6.55	10.9	7.94	–
CCOc1cc2c(cc1OC(C)=O)C(=O)CC[C@H]1C3CC[C@H](OC(C)=O)[C@@]3(C)CC[C@H]21 (stereo partly drawn)	> 100	> 100	> 100	> 100	–
COc1cccc2c1C(=O)c1ccc3cc(CCl)cc(O)c3c1C2=O	1.86	0.29	–	1.04	–
O=C1[C@@H]2C[C@@H](O)CN2C(=O)c2ccccc2N1CCCO	> 100	> 100	–	> 100	–
O=C1CCCCC/C1=C\c1ccc(Cl)cc1	> 100	> 100	84.9	> 100	–
c1ccc(C2OCC(OC3CCCCO3)CO2)cc1 (stereo not drawn)	> 100	> 100	> 100	> 100	–
O=C(CNC(=O)OCc1ccccc1)NCCCCC(NC(=O)OCc1ccccc1)C(=O)NC(CCCCNC(=O)CNC(=O)OCc1ccccc1)C(=O)OCc1ccccc1 (stereo not drawn)	> 62.5	> 62.5	> 62.5	> 62.5	–
NC(=O)NC(=O)c1cccc(NC(=O)CF)c1	> 100	> 100	> 100	> 100	–
C=C1C(=O)O[C@H]2[C@H]3O[C@@H](C[C@@H]12)[C@@]1(C)CC[C@H](O1)C(C)=CCC[C@H]3C	19	4.29	3.27	3.36	–
CCOC(=O)Nc1nn(C)c(=NCc2ccccc2)s1	> 100	> 100	> 100	> 100	–
Clc1nc(NCCc2ccccc2)c2ncn(-c3ccccc3)c2n1	> 100	56.4	42.1	94.1	–

SMILES	TGI (SNB-19 CNS) [µM]	TGI (HCT-116 colon) [µM]	TGI (OVCAR-4 ovarian) [µM]	TGI (SK-MEL-28 melanoma) [µM]	GI50 (HCT-116 colon) [µM]
COC(C)(C)CCc1[nH]c2ccccc2c1CC(=O)NCCc1cncn1C	> 100	> 100	> 100	> 100	–
COC(=O)C1=C(C)NC(C)=C(C(=O)OC)C1c1cccc(NO)c1	> 100	26.4	27.8	28.3	–
c1ccc2c(c1)nc1n2C2CCC(C2)N1 (stereo not drawn)	> 10	> 10	> 10	> 10	–
CC(=O)O[C@H]1CCn2c3c(c(C)c21)C(=O)C(N1CC1)=C(C)C3=O	> 10	> 10	> 10	–	–
CCCCCC[C@H]1C(=O)O[C@H](C)[C@H](NC(=O)c2cccc(NC=O)c2OC)C(=O)O[C@@H](C)[C@@H]1OC(=O)CC(C)C (tested in a mixture with another compound)	–	50.3	24.9	> 100	–
CC(C)(CO)NC(=O)Nc1c(C(F)(F)F)cc(-c2ccccc2)[nH]c1=O	> 100	> 100	–	> 100	–
Cn1cnc(N2CCCC2)c(C#N)c1=O	> 100	> 100	> 100	> 100	–
O=c1oc(-c2ccccc2)c(-c2ccccc2)n1-c1ccc(Br)cc1	> 100	> 100	96.4	> 100	–
C/C(=N\NC(=S)NC(C)(C)C)c1ccccn1	> 100	> 100	> 100	> 100	–
C=CCCCC1CCCNC1=S (stereo not drawn)	> 100	> 100	> 100	> 100	–
CC1=N[C@](C)(C2CC3C=CC2C3=O)COC1=O (stereo partly drawn)	> 100	> 100	> 100	> 100	–
O=S(=O)(O)c1ccc2c(N=Nc3ccc(F)cc3)c(O)c(S(=O)(=O)O)cc2c1	> 100	> 100	> 100	> 100	–
COc1cccc(C2SCC(=O)N2c2ccc(-n3c(-c4ccccc4)nc4ccccc4c3=O)cc2)c1OC (stereo not drawn)	> 100	> 100	> 100	> 100	–
CCOc1cc2c(cc1O)/C(=N/NS(=O)(=O)c1ccc(C)cc1)C[C@@H]1[C@@H]2CC[C@]2(C)[C@@H](O)CC[C@@H]12	> 100	> 100	> 100	> 100	6.67
O=C1/C(=C/c2ccccc2)CCC/C1=C\c1ccc(O)c(CN2CCCCC2)c1	26	2.97	13.8	17.5	–
C[n+]1cccc2ccc(OC(=O)c3ccccc3)cc21	> 100	> 100	> 100	–	–
COC(=O)C1(Cc2ccc3c(c2)CCC3)Cc2ccc3c(c2C1)CCC3 (stereo not drawn)	–	54.8	99.1	> 100	–
NC(CCCCNC(=O)CNC(=O)OCc1ccccc1)C(=O)NC(CCCCNC(=O)CNC(=O)OCc1ccccc1)C(=O)NC(CCCCNC(=O)CNC(=O)OCc1ccccc1)C(=O)NC(CCCCNC(=O)CNC(=O)OCc1ccccc1)C(=O)NC(CCCCNC(=O)CNC(=O)OCc1ccccc1)C(=O)NC(CCCCNC(=O)CNC(=O)OCc1ccccc1)C(=O)O (stereo not drawn)	> 75	> 75	> 75	> 75	–
Cc1ccc(S(=O)(=O)NNC2(NS(=O)(=O)c3ccc(Cl)cc3)C(Cl)=C(Cl)C(=O)c3ccccc32)cc1 (stereo not drawn)	29.8	32.4	30.1	60.7	–
CC(C)CC(NC(=O)C(CCI)Cc1ccccc1)C(=O)Nc1ccccc1 (stereo not drawn)	> 100	> 100	> 100	> 100	–
Cc1ccc(S(=O)(=O)Nn2c(S)c(C#N)c(-c3ccc([N+](=O)[O-])cc3)c(C#N)c2=O)cc1	–	32.8	> 100	> 100	–
O=C(/C=C/c1ccc(Cl)cc1)c1cccs1	33.4	33.8	–	54.2	–
O=C1/C(=C/c2c(Cl)[nH]c3ccccc23)c2ccccc2N1c1ccccc1	> 100	15.6	–	23.8	–
O=C(Cc1ccccc1)NCCCN(CCCCN(CCCNC(=O)Cc1ccccc1)C(=O)OCc1ccccc1)C(=O)OCc1ccccc1	–	> 100	> 28.6	> 100	–
O=C(CCCN1CCC2(CC1)CC(=O)N(N1CCCCCC1)C2=O)c1ccc(F)cc1	–	> 100	> 100	> 100	–
Cc1ccc(S(=O)(=O)n2c3c(c4ccccc42)CCN2CCC(Br)C[C@@H]32)cc1 (stereo partly drawn)	28.7	–	27	24.5	–

— PubChem BioAssay (NCI)
